Assay results reported in patent US20250085295A1, “METHODS FOR MEASURING INTERACTIONS BETWEEN PROTEINS COMPRISING AN FC PORTION AND PARTICLES” (NANOTEMPER TECHNOLOGIES GMBH, priority 2023, published 2025).
One block for each substance: values may come before it.

Legend:
IgG antibody = conditions: literature DOI cited; read-out: affinity of Fc-binding peptide to IgG antibody; cited from earlier work
IgA antibody = conditions: literature DOI cited; read-out: affinity of Fc-binding peptide to IgA antibody; cited from earlier work
[1] = target: T1, Her2/ERBB2 Protein, Human, Recombinant (ECD, His Tag) (Homo sapiens, UniProt P04626); experiment: Interaction of Her2 with labeled Trastuzumab in spectral shift (SpS); format: binding; conditions: 4 nM Trastuzumab, 2.4 nM tracer, Her2 up to 220 nM; FIGS. 5 and 7
T1 construct: Her2/ERBB2 Protein, Human, Recombinant (ECD, His Tag); His tag; purchased Sino Biological 10004-H08H
Procedure: (§1) The fluorescent peptide tracer was dissolved in 100% DMSO to obtain stock solutions of 2.4 mM for FcIII and FcT. Peptide tracers were mixed with 8 nM Trastuzumab and incubated for 15 min. Subsequently, 16 or 24 point 1-to-1 dilution series of Her2 were prepared and mixed 1:1 with prepared peptide: trastuzumab dilution, leading to final assay concentrations of 4 nM for Trastuzumab, 2.4 nM FcT and FcIII, and 220 nM as highest in-assay concentration of Her2. Samples were loaded into Dianthus 384-well plates (DI-P001A, NanoTemper Technologies) or polymer-coated borosilicate glass capillaries (Monolith NT.115 Premium Capillaries, MO-K025, NanoTemper Technologies). Measurements were taken with Nano Temper Software (MO.Control 2, DI.Control) by excitation at 591 nm and recording of fluorescence traces at 650 nm and 670 nm. For results showing TRIC results, simultaneous heat via an IR laser was induced and the thermophoretic behavior recorded for 5s.
(§2) For NHS labeling of Trastuzumab, NHS labeling kit 2nd generation (NanoTemper Technologies) was used. In short, Trastuzumab was exchanged into NHS labeling buffer and mixed with NHS-NTT dye. After incubation in the dark for 30 min, unreacted dye was separated using a B-column provided with the kit. Eluting fractions containing 2.5 µM labeled Trastuzumab were collected and stored at −80° C.

[2] = Thermal unfolding analysis using Fc-peptide labeling (670/650 nm ratio, first derivative); format: physicochemical; conditions: free FcIII without antibody, heating 1° C./min; FIG. 14A, 14B
Procedure: The fluorescent peptide tracer was dissolved in 100% DMSO to obtain stock solutions of 2.4 mM for FcIII. […] Samples were loaded into capillaries, excited at 591 nm and fluorescence was recorded at 650 and 670 nm. Samples were heated a rate of 1° C./min while recording fluorescence signals.

[3] = target: T1, Her2/ERBB2 Protein, Human, Recombinant (ECD, His Tag); experiment: Interaction of Her2 with labeled Trastuzumab in TRIC 670 nm; format: binding; conditions: 4 nM Trastuzumab, 2.4 nM tracer, Her2 up to 220 nM; FIGS. 6 and 8
Procedure: as §1, §2

Trastuzumab [4] = experiment: Spectral shift (SpS, 670/650 nm ratio) dose-response of fluorescent peptide tracer vs Trastuzumab; format: binding; conditions: for binding affinity of fluorescent peptide to Trastuzumab, spectral shift response (SpS): 2.4 nM peptide, Trastuzumab dilution series up to 2062.5 nM, excitation 591 nm, 650/670 nm, FIGS. 1 and 2
Procedure: (§3) The fluorescent peptide tracer was dissolved in 100% DMSO to obtain stock solutions of 2.4 mM for FcIII and FcT. Subsequently, 16 or 24 point 1-to-1 dilution series of unlabeled Trastuzumab antibodies with stock concentrations of 825 µM were prepared leading to final assay concentrations of 2062.5 nM for Trastuzumab and a FCT and FcIII concentration of 2.4 nM. Samples were loaded into Dianthus 384-well plates (DI-P001A, NanoTemper Technologies) or polymer-coated borosilicate glass capillaries (Monolith NT.115 Premium Capillaries, MO-K025, NanoTemper Technologies). Measurements were taken with Nano Temper Software (MO.Control 2, DI.Control) by excitation at 591 nm and recording of fluorescence traces at 650 nm and 670 nm. For results showing TRIC results, simultaneous induction heat via an IR laser was induced and the thermophoretic behavior recorded for 5s.
To evaluate the importance of the right affinity for this labeling approach, also a fluorescent peptide tracer was designed based on previously published findings based on a combinatorial tetrapeptide library (Camperi et al., Biotechnol Lett (2003), 25:1545-1548). To this end, the tetrapeptide APAR, which was previously found to bind to Immunoglobulin G was synthesized with an N-terminal lysine to accommodate further conjugation with Cy5 dye. The resulting fluorescent peptide tracer Cy5-KAPAR (cf. SEQ ID NO: 9) was dissolved in 100% DMSO to obtain stock solutions of 4.96 mM. The stock solution was further diluted in PBS-P. Subsequently 24 point 1-to-1 dilution series of unlabeled Trastuzumab antibody with stock concentrations of 825 μM were prepared leading to final assay concentrations of 412 μM for Trastuzumab and a Cy5-KAPAR (cf. SEQ ID NO: 9) concentration of 2.5 nM. Samples were loaded into Dianthus 384-well plates (DI-P001A, NanoTemper Technologies). Measurements were taken with Nano Temper Software (DI.Control) by excitation at 591 nm and recording of fluorescence traces at 650 nm and 670 nm. […] Such affinities result in required assay concentrations of over 100 μM in ligand-binding assays, which can hardly be achieved due to antibody solubility and availability. Furthermore, only affinities lower than the used concentration of antibody could reliable be determined, severely limiting the approach.

Trastuzumab [5] = experiment: TRIC signal at 670 nm, dose-response of fluorescent peptide tracer vs Trastuzumab; format: binding; conditions: 2.4 nM peptide, Trastuzumab dilution series, IR laser heating 5 s, FIGS. 3 and 4
Procedure: as §3

Substance: CDCAWHLGELVWCTC [Fc-III-4C]
Kd (IgG antibody): 2.5 nM

Substance: DCAWHLGELVWCT [Fc-III]
Kd (IgG antibody): 16 to 25 nM

Substance: HQVCLSYRGRPVCFST
Kd (IgA antibody): 72 nM

Substance: KHRFNKD
Kd (IgG antibody): 20 nM

Substance: L-Pro DCAWHLGELVWCT D-Pro [FcBP2]
Kd (IgG antibody): 1.8 nM

Substance: RRGW
Kd (IgG antibody): 0.5 nM

Substance: [Cyc(2,12)]Cy5-DCAWHLGELVWCT-NH2 [FcIII]
binding of Her2 to Trastuzumab labeled with the peptide tracer, spectral shift dose-response [1]: clearly show the binding of Her2 | thermal profile, unfolding events in the first derivative [2]: no distinct unfolding events | binding of Her2 to Trastuzumab labeled with the peptide tracer, TRIC signal dose-response [3]: clearly show the binding of Her2 | binding affinity of fluorescent peptide to Trastuzumab, spectral shift response (SpS) (Trastuzumab [4]): Clear binding with nanomolar affinities | binding affinity of fluorescent peptide to Trastuzumab, TRIC (Trastuzumab [5]): Clear binding with nanomolar affinities

Substance: [Cyc(2,12)]NTTred-DCAWHLGELVWCT-OH [FcT]
binding of Her2 to Trastuzumab labeled with the peptide tracer, spectral shift dose-response [1]: clearly show the binding of Her2 | binding of Her2 to Trastuzumab labeled with the peptide tracer, TRIC signal dose-response [3]: clearly show the binding of Her2 | binding affinity of fluorescent peptide to Trastuzumab, spectral shift response (SpS) (Trastuzumab [4]): Clear binding with nanomolar affinities | binding affinity of fluorescent peptide to Trastuzumab, TRIC (Trastuzumab [5]): Clear binding with nanomolar affinities

ratiometric change in the 670/650 nm fluorescence upon binding of Trastuzumab (Trastuzumab [4]; 2.5 nM Cy5-KAPAR, Trastuzumab up to 412 μM): large ratiometric change | Kd (Trastuzumab [4]; 2.5 nM Cy5-KAPAR, Trastuzumab up to 412 μM, spectral shift 670/650 nm, read-out: affinity to Trastuzumab (estimated, saturation not reached)): > 60000 nM
Substance: low affinity fluorescent peptide tracer, tetrapeptide APAR with N-terminal lysine conjugated with Cy5 (cf. SEQ ID NO: 9) [Cy5-KAPAR, Cy5-KAPAR-OH]
